In ChEMBL document CHEMBL1201862, “PubChem BioAssay data set” (2004):
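Grown in 96-well plates, cells were treated for 48 hours with each compound at five concentrations. Insufficient inhibition: endpoint recorded as highest concentration tested. GI50: concentration for 50% inhibition of growth.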 Active and inactive are the calls of the source. Cut-off read from the data, not from the text of the source: active = GI50 up to about 1.1 µM and inactive = higher.

Key:
Assay in all cases: NCI anticancer screen, dose series, 48 h
HOP-62 = test system: HOP-62
SF-295 = test system: SF-295
SNB-19 = test system: SNB-19
SK-OV-3 = test system: SK-OV-3
RXF 393 = test system: RXF 393
MDA-N = test system: MDA-N
OVCAR-3 = test system: OVCAR-3
NCI-H23 = test system: NCI-H23
786-0 = test system: 786-0
HCT-116 = test system: HCT-116
NCI-H460 = test system: NCI-H460
SF-539 = test system: SF-539
SK-MEL-28 = test system: SK-MEL-28
SF-268 = test system: SF-268
COLO 205 = test system: COLO 205
HCC 2998 = test system: HCC 2998
SW-620 = test system: SW-620
U-251 = test system: U-251
LOX IMVI = test system: LOX IMVI
K562 = test system: K562

Row | Structure (SMILES) | GI50 (HOP-62) | GI50 (SF-295) | GI50 (SNB-19) | GI50 (SK-OV-3) | GI50 (RXF 393) | GI50 (MDA-N) | GI50 (OVCAR-3) | GI50 (NCI-H23) | GI50 (786-0) | GI50 (HCT-116) | GI50 (NCI-H460) | GI50 (SF-539) | GI50 (SK-MEL-28) | GI50 (SF-268) | GI50 (COLO 205) | GI50 (HCC 2998) | GI50 (SW-620) | GI50 (U-251) | GI50 (LOX IMVI) | GI50 (K562)
1 | Cc1cnc2nc(-c3cccc4ccccc34)cc(O)c2c1 | 0.0248 µM (active) | 0.000887 µM (active) | 0.00332 µM (active) | 0.000706 µM (active) | 0.000346 µM (active) | 0.000216 µM (active) | 0.000281 µM (active) | 0.00179 µM (active) | 0.000791 µM (active) | 0.000652 µM (active) | 0.00303 µM (active) | 0.000618 µM (active) | 0.000619 µM (active) | 0.000516 µM (active) | 0.000708 µM (active) | 0.000723 µM (active) | 0.000449 µM (active) | 0.000532 µM (active) | 0.000819 µM (active) | 0.000462 µM (active)
2 | Cn1c(=O)c2nc3nnc(C#N)c(N)n3c2n(C)c1=O | > 100 µM (inactive) | > 100 µM (inactive) |  | > 100 µM (inactive) | 79.4 µM (inactive) | > 100 µM (inactive) | > 100 µM (inactive) |  | > 100 µM (inactive) | > 100 µM (inactive) | > 100 µM (inactive) | 90.2 µM (inactive) | > 100 µM (inactive) | > 100 µM (inactive) | > 100 µM (inactive) | > 100 µM (inactive) |  | > 100 µM (inactive) |  | > 100 µM (inactive)
3 | O=P1(Oc2ccccc2)N(CCCl)CCN1c1ccccc1 (stereo unspecified) | > 100 µM (inactive) | > 100 µM (inactive) | > 100 µM (inactive) | > 100 µM (inactive) | 58.5 µM (inactive) | > 100 µM (inactive) | > 100 µM (inactive) | > 100 µM (inactive) | > 100 µM (inactive) | 75.3 µM (inactive) | > 100 µM (inactive) | > 100 µM (inactive) | > 100 µM (inactive) | > 100 µM (inactive) | > 100 µM (inactive) | > 100 µM (inactive) | > 100 µM (inactive) | > 100 µM (inactive) | > 100 µM (inactive) | > 100 µM (inactive)
4 | CCN(CC)c1ccc2cc(-c3csc(C)n3)c(=O)oc2c1 | 30.6 µM (inactive) | 47 µM (inactive) | 59.7 µM (inactive) | > 100 µM (inactive) | 37.3 µM (inactive) | 0.719 µM (active) |  |  | 39.2 µM (inactive) | 69.8 µM (inactive) | > 100 µM (inactive) | 77.3 µM (inactive) | > 100 µM (inactive) | 81.3 µM (inactive) | > 100 µM (inactive) | 58.5 µM (inactive) | > 100 µM (inactive) | 57.7 µM (inactive) | 67.3 µM (inactive) | > 100 µM (inactive)
5 | O=C(NN1C(=O)c2ccccc2C1=O)c1ccccc1Nc1ccccc1C(=O)NN1C(=O)c2ccccc2C1=O | > 100 µM (inactive) | > 100 µM (inactive) | > 100 µM (inactive) |  | > 100 µM (inactive) | > 100 µM (inactive) | > 100 µM (inactive) | > 100 µM (inactive) | > 100 µM (inactive) | > 100 µM (inactive) | > 100 µM (inactive) | > 100 µM (inactive) | > 100 µM (inactive) | > 100 µM (inactive) | > 100 µM (inactive) | > 100 µM (inactive) | > 100 µM (inactive) | > 100 µM (inactive) | > 100 µM (inactive) | > 100 µM (inactive)
6 | CN(C)C(=S)Oc1ccc2ccc(=O)oc2c1 | > 100 µM (inactive) | > 100 µM (inactive) | > 100 µM (inactive) | > 100 µM (inactive) | > 100 µM (inactive) | > 100 µM (inactive) | > 100 µM (inactive) | > 100 µM (inactive) | > 100 µM (inactive) | > 100 µM (inactive) | > 100 µM (inactive) | > 100 µM (inactive) | > 100 µM (inactive) | > 100 µM (inactive) | > 100 µM (inactive) | > 100 µM (inactive) | > 100 µM (inactive) | > 100 µM (inactive) | > 100 µM (inactive) | 
7 | [N-]=[N+]=NC1OC(=O)C(Cl)=C1N=P(c1ccccc1)(c1ccccc1)c1ccccc1 (stereo unspecified) | > 10 µM (inactive) | 7.24 µM (inactive) | > 10 µM (inactive) | > 10 µM (inactive) | > 10 µM (inactive) | 9.27 µM (inactive) | 5.9 µM (inactive) |  | > 10 µM (inactive) | 6.37 µM (inactive) | > 10 µM (inactive) | > 10 µM (inactive) | > 10 µM (inactive) | > 10 µM (inactive) | 9.27 µM (inactive) | > 10 µM (inactive) | > 10 µM (inactive) | > 10 µM (inactive) | 7.78 µM (inactive) | 3.59 µM (inactive)
